Measurements reported in patent US20240182456A1, “2-((4-((S)-2-(4-CHLORO-2-FLUOROPHENYL)-2-METHYLBENZO[D][1,3]DIOXOL-4-YL)PIPERIDIN-1-YL)METHYL)-1-(((S)-OXETAN-2-YL)METHYL)-1H-IMIDAZOLE DERIVATIVES AS ACTIVATORS OF THE GLP1 RECEPTOR FOR THE TREATMENT OF OBESITY” (Novartis AG, priority 2021, published 2024).

Experiments:
[1] = biological target: T1, human GLP1R (hGLP1R) (Homo sapiens, UniProt P43220); experiment: Human GLP1R cAMP agonist assay (GloSensor); type: cell-based; conditions: HEK293-SNAP-hGLP1R-GloSensor cells; for Emax: cAMP, normalized to GLP1(7-36) maximum response, read-out: Emax mean; for EC50: intracellular cAMP, mean n=3 where SEM is given
Summary of the method: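 HEK293 cells stably expressing SNAP-tagged hGLP1R and the GloSensor-22F cAMP luciferase biosensor, pre-loaded 2 h with substrate, then exposed 12 min at rt to compound (30–0.06 μM, 0.5 mM IBMX, 0.1% BSA). Luminescence normalized to 2 nM GLP1(7-36); EC50 and Emax from 4-parameter logistic fit.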

[2] = biological target: T1, human GLP1R (hGLP1R); experiment: Human GLP1R β-arrestin recruitment assay (PathHunter); type: cell-based; design: insert synthesized by GeneArt 93-0164 (cells); 93-0491 (vector bundle); conditions: CHO-hGLP1R-β-arrestin cells; for EC50: mean n=2, read-out: Beta-Arrestin assay EC50 Mean; for Emax: relative to GLP1(7-36), read-out: Beta-Arrestin assay Emax
Protocol: Compounds 1 to 31 were tested in the following cellular assays that measure the intracellular cAMP concentration, beta-arrestin recruitment and receptor internalization. The cAMP is generated by the activation of GLP1R. The cAMP data obtained is shown in Table 1 (where S.E.M. is included, mean n=3 independent experiments+/−S.E.M). Beta-arrestin is recruited upon activation of GLP1R and the data obtained are shown in Table 2 (mean n=2 independent experiments, +/−S.D). The extent to which the GLP1R is internalized into the cell and away from the plasma membrane following activation is also shown in Table 2 (mean n=2 independent experiments, +/−S.D). EC50 for each assay is defined as the concentration of the compound that leads to half of the maximum response (after baseline correction). Emax is defined as the maximum response observed for the test compound, normalized to the maximum response observed for the endogenous ligand (GLP1(7-36)) to GLP1R.
The extent to which agonists recruited β-arrestin was measured using the PathHunter® β-arrestin assay (DiscoverX). This assay measures binding of β-arrestin to the receptor using an enzyme complementation approach. […] When β-arrestin is recruited to the receptor the enzyme becomes active and generates luminescence in the presence of a chemiluminescent substrate (PathHunter® Detection Kit, DiscoverX cat #93-0001). Luminescence can be measured on a relevant detector. CHO-hGLP1R-β-arrestin cells stably overexpressing hGLP1R with Prolink tag and β-arrestin with EA tag were seeded at 20 μL per well in white 384-well poly-D-Lysine coated plates (Greiner Bio One, cat #781945) in Plating Reagent 2 (DiscoverX, cat #93-0563R2A), and incubated overnight at 37° C., 5% CO2 with humidity. The following day, agonists were prepared at 5 times the final required concentration. To generate triplicate dose response curves, compounds were serially diluted 3-fold in assay buffer (HBSS, 10 mM Hepes and 0.1% BSA), then added to the cell assay plate to a final volume of 25 μL and final top concentrations starting at 30 μM. In the same plate and assay buffer as the tested compounds, were EC100 control wells containing GLP1 (7-36) peptide (Bachem, cat #H-6795) at a final concentration of 1 μM and also EC0 control wells containing no compound. The plate was incubated at 37° C., 5% CO2 with humidity for 2 h after adding the compounds to the cells. Then the detection reagent was prepared (19 parts cell assay buffer, 5 parts substrate reagent 1 and 1 part substrate reagent 2 as per manufacturers recommendations, DiscoverX cat #93-0001), and 12 μL were added per well to the cell assay plate. The plate was incubated for an additional hour in the dark at RT. Luminescence was then measured with an Envision 2104 Multilabel reader with “TRF Light Unit, 337 nm” (Perkin Elmer) using the Ultra-Sensitive protocol setting “384-well US luminescence detector” with the 384-well luminescence aperture, 0.1 sec per well. β-arrestin recruitment was calculated and expressed as percent of the GLP1 (7-36) EC100 control wells: [(sample signal−mean EC0 signal)/(mean EC100 of GLP1 (7-36) signal−mean EC0 signal)]*100 using Microsoft Excel. Curve fitting for EC50 determinations was performed using GraphPad Prism. The 4-parameter logistic model, Hill slope was used: Y=Bottom+(Top−Bottom)/(1+10^((Log EC50−X)*Hill Slope)), where Y is the functional response; X is the compound concentration; bottom is A0 or the minimum value (at 0 dose); top is Ainf or the maximum value (at infinite dose); EC50 is the point of inflection (i.e. the point on the sigmoid shaped curve halfway between A0 and Ainf). The EC50 value was calculated in μM. Emax is the maximal activity detected within the concentration range, derived from the fitted curve relative to GLP1(7-36). […]

T1 sequence (P43220 24-463): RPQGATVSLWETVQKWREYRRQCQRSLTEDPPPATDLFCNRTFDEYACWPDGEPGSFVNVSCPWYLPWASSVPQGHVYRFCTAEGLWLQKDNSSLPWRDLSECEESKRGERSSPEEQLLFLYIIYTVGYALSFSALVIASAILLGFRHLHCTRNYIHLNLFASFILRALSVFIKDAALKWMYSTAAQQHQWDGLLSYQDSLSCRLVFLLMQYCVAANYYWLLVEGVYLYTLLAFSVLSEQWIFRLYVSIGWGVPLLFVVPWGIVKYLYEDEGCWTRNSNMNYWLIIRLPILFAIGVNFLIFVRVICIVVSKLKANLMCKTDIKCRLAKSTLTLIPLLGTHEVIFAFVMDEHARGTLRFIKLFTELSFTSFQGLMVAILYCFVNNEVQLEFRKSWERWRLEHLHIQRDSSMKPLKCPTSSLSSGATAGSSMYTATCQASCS

| SMILES | Emax [1] | EC50 [1] | EC50 [2] | Emax [2] |
| --- | --- | --- | --- | --- |
| Cc1nc(CN2CCC(c3cccc4c3O[C@@](C)(c3ccc(Cl)cc3F)O4)CC2)n(C[C@@H]2CCO2)c1/C=C/C(=O)O [Compound C-5, (E)-3-(2-((4-((S)-2-(4-chloro-2-fluorophenyl)-2-methylbenzo[d][1,3]dioxol-4-yl)piperidin-1-yl)methyl)-4-methyl-1-(((S)-oxetan-2-yl)methyl)-1H-imidazol-5-yl)acrylic acid] | 110% | 0.0129 nM | 404 nM | 12% |
| C[C@]1(c2ccc(Cl)cc2F)Oc2cccc(C3CCN(Cc4nc(/C=C/C(=O)O)cn4C[C@@H]4CCO4)CC3)c2O1 [Compound C-2, (E)-3-(2-((4-((S)-2-(4-chloro-2-fluorophenyl)-2-methylbenzo[d][1,3]dioxol-4-yl)piperidin-1-yl)methyl)-1-(((S)-oxetan-2-yl)methyl)-1H-imidazol-4-yl)acrylic acid] | 109% | 2.23 nM | > 30000 nM | 0% |
| C[C@]1(c2ccc(Cl)cc2F)Oc2cccc(C3CCN(Cc4nc(C(F)(F)F)c(C(=O)O)n4C[C@@H]4CCO4)CC3)c2O1 [Compound C-7, 2-((4-((S)-2-(4-chloro-2-fluorophenyl)-2-methylbenzo[d][1,3]dioxol-4-yl)piperidin-1-yl)methyl)-1-(((S)-oxetan-2-yl)methyl)-4-(trifluoromethyl)-1H-imidazole-5-carboxylic acid] | 109% | 0.847 nM | > 30000 nM | 2% |
| C[C@]1(c2ccc(Cl)cc2F)Oc2cccc(C3CCN(Cc4ncc(/C=C/C(=O)O)n4C[C@@H]4CCO4)CC3)c2O1 [Compound C-1, (E)-3-(2-((4-((S)-2-(4-chloro-2-fluorophenyl)-2-methylbenzo[d][1,3]dioxol-4-yl)piperidin-1-yl)methyl)-1-(((S)-oxetan-2-yl)methyl)-1H-imidazol-5-yl)acrylic acid] | 111% | 0.0197 nM | 494 nM | 9% |
